Structures can show the parent of a compound that is named as a salt.
Molecular target: T1, H3 receptor (Rattus norvegicus, UniProt Q9QYN8)
T1 construct: The frontal cortex dissected from rats was homogenized; from tissue; host or cells: rat frontal cortex membrane fraction
Test: Rat H3 receptor binding test (N-α-methyl[3H]histamine, frontal cortex membrane fraction)
Conditions: N-α-methyl[3H]histamine 0.75 nM, room temperature, an hour
Experimental: (Test 1: Rat H3 Receptor Binding Test)
The frontal cortex dissected from rats was homogenized with a Teflon (registered trademark) homogenizer in a 50 mM Tris-HCl buffer solution (pH 7.4) containing a protease inhibitor (Complete EDTA-free; Roche Diagnostics) and 5 mM EDTA. The homogenate was centrifuged at 48,000×g for 15 minutes. The supernatant was removed and the pellet was suspended in a 50 mM Tris-HCl buffer solution (pH 7.4) containing 5 mM EDTA and centrifuged at 48,000×g for 15 minutes. The supernatant was removed and the pellet was suspended in a 50 mM Tris-HCl buffer solution (pH 7.4) containing 5 mM EDTA to give a membrane fraction. The membrane fraction (the protein content in the final reaction mixture: 75 μg), N-α-methyl[^3H]histamine (PerkinElmer; final concentration: 0.75 nM) and a test drug were mixed and subjected to reaction at room temperature for an hour. After the end of the reaction, the reaction mixture was suction filtered through a 96-well GF/C filter plate pretreated with 0.3% polyethyleneimine; the filters were then washed five times with a 50 mM Tris-HCl buffer solution (pH 7.4) containing 5 mM EDTA. After the washing, the filters were dried and a scintillator was added to measure the residual radioactivity on the filter with TopCount (PerkinElmer).
The residual radioactivity in the presence of 10 μM thioperamide was taken as indicative of nonspecific binding and the difference from the residual radioactivity in the absence of thioperamide was taken as indicative of specific binding. Each of the test drugs was dissolved and diluted in DMSO at varying concentrations to plot a dose-response curve from the corresponding residual radioactivities; the concentration of test drug that inhibited the specific binding by 50% (IC50) was determined from this curve.

T1 sequence (Q9QYN8 whole entry): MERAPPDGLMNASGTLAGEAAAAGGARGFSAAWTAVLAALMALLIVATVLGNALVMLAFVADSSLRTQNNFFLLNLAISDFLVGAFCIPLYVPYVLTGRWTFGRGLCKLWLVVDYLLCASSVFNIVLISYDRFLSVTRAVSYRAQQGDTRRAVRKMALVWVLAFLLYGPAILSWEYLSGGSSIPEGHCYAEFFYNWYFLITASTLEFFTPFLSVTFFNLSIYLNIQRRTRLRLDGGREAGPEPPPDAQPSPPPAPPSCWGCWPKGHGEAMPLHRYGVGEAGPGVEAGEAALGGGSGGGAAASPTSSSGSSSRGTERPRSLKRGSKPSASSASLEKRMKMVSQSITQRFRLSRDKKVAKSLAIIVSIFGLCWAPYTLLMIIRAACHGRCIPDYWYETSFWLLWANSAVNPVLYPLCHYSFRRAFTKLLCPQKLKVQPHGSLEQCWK

SMILES | IC50
CCOC(=O)c1cn(-c2ccc(OC3CCN(C4CCC4)CC3)cc2)nn1 [Compound No. 1, ethyl 1-{4-[(1-cyclobutylpiperidin-4-yl)oxy]phenyl}-1H-1,2,3-triazole-4-carboxylate] | 5.3 nM
COCc1cn(-c2ccc(OC3CCN(C4CCC4)CC3)cc2)nn1 [Compound No. 2, 1-cyclobutyl-4-{4-[4-(methoxymethyl)-1H-1,2,3-triazol-1-yl]phenoxy}piperidine] | 7.4 nM
CCOc1cn(-c2ccc(OC3CCN(C4CCC4)CC3)cc2)nn1 [Compound No. 3, 1-cyclobutyl-4-[4-(4-ethoxy-1H-1,2,3-triazol-1-yl)phenoxy]piperidine] | 5.1 nM
c1cc(-n2cc(C3CC3)nn2)ccc1OC1CCN(C2CCC2)CC1 [Compound No. 4, 1-cyclobutyl-4-[4-(4-cyclopropyl-1H-1,2,3-triazol-1-yl)phenoxy]piperidine] | 3.6 nM
O=C(O)c1cn(-c2ccc(OC3CCN(C4CCC4)CC3)cc2)nn1 [Compound No. 17, 1-{4-[(1-cyclobutylpiperidin-4-yl)oxy]phenyl}-1H-1,2,3-triazole-4-carboxylic acid hydrochloride] | 132 nM
O=C(c1cn(-c2ccc(OC3CCN(C4CCC4)CC3)cc2)nn1)N1CCC1 [Compound No. 18, azetidin-1-yl(1-{4-[(1-cyclobutylpiperidin-4-yl)oxy]phenyl}-1H-1,2,3-triazol-4-yl)methanone] | 14 nM
NC(=O)c1cn(-c2ccc(OC3CCN(C4CCC4)CC3)cc2)nn1 [Compound No. 20, 1-{4-[(1-cyclobutylpiperidin-4-yl)oxy]phenyl}-1H-1,2,3-triazole-4-carboxamide] | 18 nM
N#Cc1cn(-c2ccc(OC3CCN(C4CCC4)CC3)cc2)nn1 [Compound No. 21, 1-{4-[(1-cyclobutylpiperidin-4-yl)oxy]phenyl}-1H-1,2,3-triazole-4-carbonitrile hydrochloride] | 13 nM
c1cn(-c2ccc(OC3CCN(C4CCC4)CC3)cc2)nn1 [Compound No. 23, 1-cyclobutyl-4-[4-(1H-1,2,3-triazol-1-yl)phenoxy]piperidine] | 17 nM
CCOC(=O)c1cn(-c2ccc(OCCCN3CCC[C@H]3C)cc2)nn1 [Compound No. 24, ethyl 1-(4-{3-[(2R)-2-methylpyrrolidin-1-yl]propoxy}phenyl)-1H-1,2,3-triazole-4-carboxylate] | 7.4 nM
O=C(c1cn(-c2ccc(OC3CCN(C4CCC4)CC3)cc2)nn1)N1CCOCC1 [Compound No. 25, (1-{4-[(1-cyclobutylpiperidin-4-yl)oxy]phenyl}-1H-1,2,3-triazol-4-yl)(morpholin-4-yl)methanone] | 6.4 nM
CN(C)C(=O)c1cn(-c2ccc(OC3CCN(C4CCC4)CC3)cc2)nn1 [Compound No. 26, 1-{4-[(1-cyclobutylpiperidin-4-yl)oxy]phenyl}-N,N-dimethyl-1H-1,2,3-triazole-4-carboxamide] | 5.5 nM
CCOC(=O)c1cn(-c2ccc(OC3CCN(C(C)(C)C)CC3)cc2)nn1 [Compound No. 27, ethyl 1-{4-[(1-tert-butylpiperidin-4-yl)oxy]phenyl}-1H-1,2,3-triazole-4-carboxylate] | 70 nM
CC(C)(C)N1CCC(Oc2ccc(-n3cc(C(=O)N4CCCC4)nn3)cc2)CC1 [Compound No. 28, (1-{4-[(1-tert-butylpiperidin-4-yl)oxy]phenyl}-1H-1,2,3-triazol-4-yl)(pyrrolidin-1-yl)methanone] | 33 nM
CC(C)(C)N1CCC(Oc2ccc(-n3cc(C(=O)N4CCC4)nn3)cc2)CC1 [Compound No. 29, azetidin-1-yl(1-{4-[(1-tert-butylpiperidin-4-yl)oxy]phenyl}-1H-1,2,3-triazol-4-yl)methanone] | 48 nM
CNC(=O)c1cn(-c2ccc(OC3CCN(C(C)(C)C)CC3)cc2)nn1 [Compound No. 30, 1-{4-[(1-tert-butylpiperidin-4-yl)oxy]phenyl}-N-methyl-1H-1,2,3-triazole-4-carboxamide] | 126 nM
CC(C)(C)N1CCC(Oc2ccc(-n3cc(C(N)=O)nn3)cc2)CC1 [Compound No. 31, 1-{4-[(1-tert-butylpiperidin-4-yl)oxy]phenyl}-1H−1,2,3-triazole-4-carboxamide] | 122 nM
CC(C)(C)N1CCC(Oc2ccc(-n3cc(C#N)nn3)cc2)CC1 [Compound No. 32, 1-{4-[(1-tert-butylpiperidin-4-yl)oxy]phenyl}-1H-1,2,3-triazole-4-carbonitrile] | 67 nM

SMILES | IC50
CCOC(=O)c1ncn(-c2ccc(OC3CCN(C4CCC4)CC3)cc2)n1 [Compound No. 33, ethyl 1-{4-[(1-cyclobutylpiperidin-4-yl)oxy]phenyl}-1H-1,2,4-triazole-3-carboxylate] | 4.5 nM
O=C(c1ncn(-c2ccc(OC3CCN(C4CCC4)CC3)cc2)n1)N1CCCC1 [Compound No. 34, (1-{4-[(1-cyclobutylpiperidin-4-yl)oxy]phenyl}-1H-1,2,4-triazol-3-yl)(pyrrolidin-1-yl)methanone] | 1.3 nM
O=C(c1ncn(-c2ccc(OC3CCN(C4CCC4)CC3)cc2)n1)N1CCC1 [Compound No. 35, azetidin-1-yl(1-{4-[(1-cyclobutylpiperidin-4-yl)oxy]phenyl}-1H-1,2,4-triazol-3-yl)methanone] | 0.5 nM
O=C(c1ncn(-c2ccc(OC3CCN(C4CCC4)CC3)cc2)n1)N1CCCCC1 [Compound No. 36, (1-{4-[(1-cyclobutylpiperidin-4-yl)oxy]phenyl}-1H-1,2,4-triazol-3-yl)(piperidin-1-yl)methanone] | 10 nM
CC(C)(C)NC(=O)c1ncn(-c2ccc(OC3CCN(C4CCC4)CC3)cc2)n1 [Compound No. 37, N-tert-butyl-1-{4-[(1-cyclobutylpiperidin-4-yl)oxy]phenyl}-1H-1,2,4-triazole-3-carboxamide] | 7.3 nM
O=C(O)c1ncn(-c2ccc(OC3CCN(C4CCC4)CC3)cc2)n1 [Compound No. 38, 1-{4-[(1-cyclobutylpiperidin-4-yl)oxy]phenyl}-1H-1,2,4-triazole-3-carboxylic acid hydrochloride] | 158 nM
NC(=O)c1ncn(-c2ccc(OC3CCN(C4CCC4)CC3)cc2)n1 [Compound No. 39, 1-{4-[(1-cyclobutylpiperidin-4-yl)oxy]phenyl}-1H-1,2,4-triazole-3-carboxamide] | 11 nM
CC(=O)c1ncn(-c2ccc(OC3CCN(C4CCC4)CC3)cc2)n1 [Compound No. 40, 1-(1-{4-[(1-cyclobutylpiperidin-4-yl)oxy]phenyl}-1H-1,2,4-triazol-3-yl)ethanone hydrochloride] | 6.4 nM
N#Cc1ncn(-c2ccc(OC3CCN(C4CCC4)CC3)cc2)n1 [Compound No. 41, 1-{4-[(1-cyclobutylpiperidin-4-yl)oxy]phenyl}-1H-1,2,4-triazole-3-carbonitrile] | 6.4 nM
CC(=O)c1cn(-c2ccc(OC3CCN(C4CCC4)CC3)cc2)nn1 [compound 5, 1-(1-[4-[(1-cyclobutylpiperidin-4-yl)oxy]phenyl}-1H-1,2,3-triazol-4-yl)ethanone] | 7.7 nM
CC(C)(O)c1cn(-c2ccc(OC3CCN(C4CCC4)CC3)cc2)nn1 [compound 6, 2-(1-{4-[(1-cyclobutylpiperidin-4-yl)oxy]phenyl}-1H-1,2,3-triazol-4-yl)propan-2-ol] | 12 nM
CC(C)(C)c1cn(-c2ccc(OC3CCN(C4CCC4)CC3)cc2)nn1 [compound 7, 4-[4-(4-tert-butyl-1H-1,2,3-triazol-1-yl)phenoxy]-1-cyclobutylpiperidine] | 4.9 nM
Cc1c(C(=O)N2CCCC2)nnn1-c1ccc(OC2CCN(C3CCC3)CC2)cc1 [compound 9, (1-{4-[(1-cyclobutylpiperidin-4-yl)oxy]phenyl}-5-methyl-1H-1,2,3-triazol-4-yl)(pyrrolidin-1-yl)methanone] | 24 nM
Cc1c(C(=O)N2CCC2)nnn1-c1ccc(OC2CCN(C3CCC3)CC2)cc1 [compound 10, azetidin-1-yl(1-{4-[(1-cyclobutylpiperidin-4-yl)oxy]phenyl}-5-methyl-1H-1,2,3-triazol-4-yl)methanone] | 37 nM
CNC(=O)c1nnn(-c2ccc(OC3CCN(C4CCC4)CC3)cc2)c1C [compound 11, 1-{4-[(1-cyclobutylpiperidin-4-yl)oxy]phenyl}-N,5-dimethyl-1H-1,2,3-triazole-4-carboxamide] | 19 nM
O=C(Cc1cn(-c2ccc(OC3CCN(C4CCC4)CC3)cc2)nn1)N1CCCC1 [compound 12, 2-(1-[4-[(1-cyclobutylpiperidin-4-yl)oxy]phenyl}-1H-1,2,3-triazol-4-yl)-1-(pyrrolidin-1-yl)ethanone] | 16 nM
O=C(Cc1cn(-c2ccc(OC3CCN(C4CCC4)CC3)cc2)nn1)N1CCC1 [compound 13, 1-(azetidin-1-yl)-2-(1-{4-[(1-cyclobutylpiperidin-4-yl)oxy]phenyl}-1H-1,2,3-triazol-4-yl)ethanone] | 19 nM
CNC(=O)Cc1cn(-c2ccc(OC3CCN(C4CCC4)CC3)cc2)nn1 [compound 14, 2-(1-{4-[(1-cyclobutylpiperidin-4-yl)oxy]phenyl}-1H-1,2,3-triazol-4-yl)-N-methylacetamide] | 32 nM
